Test results published in patent US9133129B2, “Bicyclic compound” (TAKEDA PHARMACEUTICAL COMPANY LIMITED, priority 2011, dated 2015).

Legend:
[1] = target: T1, human ACC2 (Homo sapiens, UniProt O00763); experiment: ACC2 inhibitory activity, malachite green assay with recombinant ACC2 (Nd); format: biochemical; conditions: for inhibition at 10 µM: 10 μM of the test compound, read-out: ACC2 inhibitory rates (%) at 10 μM; for inhibition at 1 µM: 1 μM of the test compound, read-out: ACC2 inhibitory rates (%) at 1 μM
T1 construct: made in house; host or cells: SF-9 insect cells, recombinant baculovirus BAC-ACC2 (Nd)
Method: The ACC2 inhibitory action of the compound of the present invention was evaluated by the following method.
(1) Cloning of Human ACC2 Gene and Preparation of Recombinant Baculovirus
Human ACC2 gene was cloned by PCR using a human skeletal muscle cDNA library (Clontech) as a template and Primer 1 and Primer 2 shown below. Primer 1 and Primer 2 were prepared by adding SalI, XbaI restriction enzyme recognition sequences based on the information of the base sequence of human ACC2 gene (Genbank Accession U89344).
(§1) PCR was performed using Pyrobest DNA polymerase (TAKARA BIO INC.). The obtained PCR product was cloned to pT7 Blue vector (Novagen) and after confirmation of the base sequence, digested with restriction enzymes SalI and XbaI. The obtained DNA fragment was inserted into pFAST-BacHTa (Invitrogen) digested with restriction enzymes SalI and XbaI to give expression plasmid ACC2/pFAST-BacHTa.
A plasmid for expression of ACC2 without a mitochondrial targeting sequence was prepared by PCR using the expression plasmid as a template, and Primer 3 (SalI restriction enzyme recognition sequence was added) and Primer 4, which are prepared by reference to the information of human ACC2 gene base sequence (Genbank Accession U89344).
as §1, with “Pyrobest-DNA” for “Pyrobest DNA”, “AflII.” for “XbaI.”, “ACC2/pFAST-BacHTa” for “pFAST-BacHTa (Invitrogen)”, “AflII” for “XbaI”, “ACC2mito7/pFAST-BacHTa.” for “ACC2/pFAST-BacHTa.”
Using the expression plasmid ACC2mito7/pFAST-BacHTa and BAC-TO-BAC Baculovirus Expression System (Invitrogen), virus stock BAC-ACC2 of recombinant Baculovirus (N terminal deleted (hereinafter Nd)) was prepared.
(2) Preparation of ACC2 (Nd) Protein
SF-9 cells (Invitrogen) were inoculated to a medium (10 L) for insect cells (Sf-900IISFM medium (Invitrogen) containing 5% fetal bovine serum (Trace), 50 mg/L Gentamicin (Wako), 0.1% Pluronic F-68 (Invitrogen)) at 1.0×10^6 cells/mL, and cultured with shaking in Wave Bioreactor (GE Health Care) at 27° C., 20 rpm, rocking angle 10°, oxygen concentration 30%.
On day 2 of the culture, recombinant Baculovirus BAC-ACC2 (Nd) was added, and the cells were cultured for 3 days. The culture medium was centrifuged at 1000×g for 10 min to give virus-infected cells. The cells were washed with phosphate buffered saline (Invitrogen) and centrifuged under the same conditions. The obtained cells were cryopreserved at −80° C.
The cryopreserved cells were thawed in ice and suspended in 900 mL of 25 mM HEPES buffer (pH 7.5) containing 10% Glycerol, 0.3 M NaCl, 1 mM EDTA, 25 mM Sodium β-Glycerophosphate and 1 mM Sodium Orthovanadate, and supplemented with Complete Protease Inhibitor (Roche). The obtained suspension was homogenized three times in a polytron homogenizer (Kinematica) at 20,000 rpm for 30 sec. The obtained cell disruption solution was clarified by centrifugation at 186000×g for 60 min. To the supernatant was added 5 mL of AF-chelate 650M Ni chelated carrier (TOSOH), and the mixture was rotated at 4° C. for 1 hr, and centrifuged at 1000×g for 5 min, and the carrier was transferred to opened column. The column was washed with 50 mL of buffer A (50 mM HEPES (pH 7.5) containing 0.3 M NaCl), further washed with buffer A containing 20 mM Imidazole, and eluted with buffer A containing 250 mM Imidazole. The eluate was concentrated with Amicon Ultra 15 (Millipore) with a molecular weight cut off of 50K. The obtained concentrate was filtered using gelfiltration column (HiLoad 26/60 Superdex200 prep grade) (GE Health Care) with 50 mM HEPES buffer (pH 7.5) containing 10 mM MgCl2, 2 mM Dithiothreitol, 10 mM Tripotassium Citrate and 0.3 M NaCl to give ACC2 (Nd). The obtained ACC2 (Nd) was cryopreserved at −80° C.
(3) Measurement of ACC2 Inhibitory Activity […]

T1 sequence (O00763 117-2458 limits assumed): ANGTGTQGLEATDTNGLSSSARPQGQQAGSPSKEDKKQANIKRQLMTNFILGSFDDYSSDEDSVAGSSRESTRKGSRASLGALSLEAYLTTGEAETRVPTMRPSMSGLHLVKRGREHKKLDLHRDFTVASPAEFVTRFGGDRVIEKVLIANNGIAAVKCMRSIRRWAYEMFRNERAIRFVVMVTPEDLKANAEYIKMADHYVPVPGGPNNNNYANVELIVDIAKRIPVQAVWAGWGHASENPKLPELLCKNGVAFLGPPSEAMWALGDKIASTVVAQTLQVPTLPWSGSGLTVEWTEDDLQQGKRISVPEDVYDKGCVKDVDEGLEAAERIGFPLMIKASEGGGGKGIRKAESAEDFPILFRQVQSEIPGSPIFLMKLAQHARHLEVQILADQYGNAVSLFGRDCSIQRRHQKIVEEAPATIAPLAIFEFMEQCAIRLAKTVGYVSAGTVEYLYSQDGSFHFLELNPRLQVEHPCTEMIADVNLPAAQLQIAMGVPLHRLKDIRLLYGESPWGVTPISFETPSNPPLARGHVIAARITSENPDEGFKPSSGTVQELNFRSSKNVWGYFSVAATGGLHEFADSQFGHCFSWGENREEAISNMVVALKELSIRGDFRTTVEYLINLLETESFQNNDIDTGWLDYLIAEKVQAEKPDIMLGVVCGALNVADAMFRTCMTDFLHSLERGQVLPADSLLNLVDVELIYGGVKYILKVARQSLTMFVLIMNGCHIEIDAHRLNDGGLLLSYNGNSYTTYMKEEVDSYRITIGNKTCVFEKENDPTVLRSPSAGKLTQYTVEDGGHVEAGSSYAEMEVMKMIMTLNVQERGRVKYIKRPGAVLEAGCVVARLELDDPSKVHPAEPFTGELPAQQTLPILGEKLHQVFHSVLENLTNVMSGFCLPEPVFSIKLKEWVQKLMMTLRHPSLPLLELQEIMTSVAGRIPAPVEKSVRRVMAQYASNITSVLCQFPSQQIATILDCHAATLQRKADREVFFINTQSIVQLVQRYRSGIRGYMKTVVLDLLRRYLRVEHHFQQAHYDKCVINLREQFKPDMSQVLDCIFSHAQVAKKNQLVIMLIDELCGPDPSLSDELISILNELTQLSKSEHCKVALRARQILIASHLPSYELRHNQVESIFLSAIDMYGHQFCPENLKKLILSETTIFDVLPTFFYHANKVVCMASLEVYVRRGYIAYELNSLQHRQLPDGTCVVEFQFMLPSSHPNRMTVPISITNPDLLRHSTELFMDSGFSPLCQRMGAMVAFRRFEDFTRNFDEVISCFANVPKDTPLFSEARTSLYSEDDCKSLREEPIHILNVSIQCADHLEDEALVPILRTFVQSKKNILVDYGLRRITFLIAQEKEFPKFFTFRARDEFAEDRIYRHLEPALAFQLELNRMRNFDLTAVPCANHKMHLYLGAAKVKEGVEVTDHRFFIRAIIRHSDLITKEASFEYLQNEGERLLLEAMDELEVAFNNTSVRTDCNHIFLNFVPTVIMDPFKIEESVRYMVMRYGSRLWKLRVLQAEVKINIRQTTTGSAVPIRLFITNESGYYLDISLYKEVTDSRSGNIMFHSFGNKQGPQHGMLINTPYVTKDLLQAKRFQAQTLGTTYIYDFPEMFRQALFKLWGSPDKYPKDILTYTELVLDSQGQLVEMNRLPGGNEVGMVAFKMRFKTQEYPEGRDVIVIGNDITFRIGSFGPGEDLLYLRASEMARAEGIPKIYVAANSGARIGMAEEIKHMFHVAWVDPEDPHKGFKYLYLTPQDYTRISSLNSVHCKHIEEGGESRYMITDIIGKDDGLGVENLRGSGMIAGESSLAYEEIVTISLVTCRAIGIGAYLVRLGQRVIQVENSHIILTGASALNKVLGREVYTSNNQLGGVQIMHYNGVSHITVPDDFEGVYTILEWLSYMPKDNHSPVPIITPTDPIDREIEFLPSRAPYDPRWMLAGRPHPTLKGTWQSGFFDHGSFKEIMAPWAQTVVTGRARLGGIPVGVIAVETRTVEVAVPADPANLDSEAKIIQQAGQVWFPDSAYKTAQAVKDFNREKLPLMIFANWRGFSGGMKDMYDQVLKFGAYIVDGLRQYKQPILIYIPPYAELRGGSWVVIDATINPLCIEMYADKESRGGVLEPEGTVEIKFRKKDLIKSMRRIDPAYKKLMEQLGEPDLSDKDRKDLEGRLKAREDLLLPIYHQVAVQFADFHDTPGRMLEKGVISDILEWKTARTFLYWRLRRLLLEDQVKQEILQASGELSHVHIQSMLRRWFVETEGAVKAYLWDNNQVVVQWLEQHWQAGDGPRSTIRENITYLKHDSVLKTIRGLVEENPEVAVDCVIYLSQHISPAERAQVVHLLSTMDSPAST

SMILES | inhibition at 10 µM [1] [%] | melting point [°C] | inhibition at 1 µM [1] [%]
CC(=O)N[C@@H](C)COc1cc2oc(-c3cc(F)c(OCC4CC4)cc3F)nc2cn1 [Example 48, N-((2S)-1-((2-(4-(cyclopropylmethoxy)-2,5-difluorophenyl)[1,3]oxazolo[4,5-c]pyridin-6-yl)oxy)propan-2-yl)acetamide] | 85 | 199.8 to 199.9 | 
CC(=O)N[C@@H](C)COc1cc2oc(-c3ccc(OC[C@H]4CC4(F)F)cc3)nc2cn1 [Example 68, N-((2S)-1-((2-(4-(((1R)-2,2-difluorocyclopropyl)methoxy)phenyl) [1,3]oxazolo[4,5-c]pyridin-6-yl)oxy)propan-2-yl)acetamide] |  | 204.6 to 204.7 | 98
CC(=O)N[C@@H](C)COc1cc2oc(-c3cc(F)c(OCC4CC4)cn3)nc2cn1 [Example 65, N-((2S)-1-((2-(5-(cyclopropylmethoxy)-4-fluoropyridin-2-yl)[1,3]oxazolo[4,5-c]pyridin-6-yl)oxy)propan-2-yl)acetamide] |  | 183.3 to 183.4 | 95
CC(=O)N[C@@H](C)COc1ccc2nc(-c3ccc(OCC4CC4)c(Cl)c3)oc2c1 [Example 29, N-((2S)-1-((2-(3-chloro-4-(cyclopropylmethoxy)phenyl)-1,3-benzoxazol-6-yl)oxy)propan-2-yl)acetamide] |  | 156 to 159 | 
CC(=O)N[C@@H](C)COc1ccc2nc(-c3ccc(OCC4CC4)c(F)c3)oc2c1F [Example 37, N-((2S)-1-((2-(4-(cyclopropylmethoxy)-3-fluorophenyl)-7-fluoro-1,3-benzoxazol-6-yl)oxy)propan-2-yl)acetamide] | 90 | 163 to 164 | 
CC(=O)N[C@@H](C)COc1cc2oc(-c3ccc(OCC4CC4)cc3C)nc2cn1 [Example 117, N-((2S)-1-((2-(4-(cyclopropylmethoxy)-2-methylphenyl)[1,3]oxazolo[4,5-c]pyridin-6-yl)oxy)propan-2-yl)acetamide] | 101 |  | 
CC(=O)N[C@@H](C)COc1ccc2nc(-c3ccc(OCC4CC4)c(F)c3)oc2c1 [Example 1, N-((2S)-1-((2-(4-(cyclopropylmethoxy)-3-fluorophenyl)-1,3-benzoxazol-6-yl)oxy)propan-2-yl)acetamide] | 95 | 174 | 
COc1cc(-c2nc3cnc(OC[C@H](C)NC(C)=O)cc3o2)cc(F)c1OCC1CC1 [Example 62, N-((2S)-1-((2-(4-(cyclopropylmethoxy)-3-fluoro-5-methoxyphenyl) [1,3]oxazolo[4,5-c]pyridin-6-yl)oxy)propan-2-yl)acetamide] |  | 162.9 to 163 | 90
CC(=O)N[C@@H](C)COc1cc2oc(-c3ncc(OCC4CC4)cc3C)nc2cn1 [Example 120, N-((2S)-1-((2-(5-(cyclopropylmethoxy)-3-methylpyridin-2-yl)[1,3]oxazolo[4,5-c]pyridin-6-yl)oxy)propan-2-yl)acetamide] | 96 |  | 

Results, then the compound that gave them:

inhibition at 10 µM [1] [%] | melting point [°C] | inhibition at 1 µM [1] [%] | SMILES
84 |  |  | CC(=O)N[C@@H](C)COc1ncc2nc(-c3ccc(OCC4CC4(F)F)cc3)oc2n1 (stereo partly drawn) [Example 136, N-((2S)-1-((2-(4-((2,2-difluorocyclopropyl)methoxy)phenyl) [1,3]oxazolo[5,4-d]pyrimidin-5-yl)oxy)propan-2-yl)acetamide]
 |  | 98 | CC(=O)N[C@@H](C)COc1cc2oc(-c3ccc(OC[C@H]4CC4(F)F)c(F)c3)nc2cn1 [Example 69, N-((2S)-1-((2-(4-(((1R)-2,2-difluorocyclopropyl)methoxy)-3-fluorophenyl) [1,3]oxazolo[4,5-c]pyridin-6-yl)oxy)propan-2-yl)acetamide]
89 |  |  | CC(=O)N[C@@H](C)COc1ccc2nc(-c3ccc(OCC4CC4(F)F)c(F)c3)oc2c1F (stereo partly drawn) [Example 80, N-((2S)-1-((2-(4-((2,2-difluorocyclopropyl)methoxy)-3-fluorophenyl)-7-fluoro-1,3-benzoxazol-6-yl)oxy)propan-2-yl)acetamide]
81 |  |  | CC(=O)N[C@@H](C)COc1ncc2nc(-c3cc(F)c(OC[C@H]4CC4(F)F)c(F)c3)oc2n1 [Example 167, N-((2S)-1-((2-(4-(((1R)-2,2-difluorocyclopropyl)methoxy)-3,5-difluorophenyl)[1,3]oxazolo[5,4-d]pyrimidin-5-yl)oxy)propan-2-yl)acetamide]
